Common to all, as to assay type: binding
In assay [1] the target is T1, human E-Selectin-IgG-chimera (Homo sapiens, UniProt P16581).
T1 construct: fused on or other part: human IgG Fc part, a tag and dimerising handle that is captured by the goat anti-human Fc antibody on the plate
T1 sequence (P16581 22-175 limits assumed): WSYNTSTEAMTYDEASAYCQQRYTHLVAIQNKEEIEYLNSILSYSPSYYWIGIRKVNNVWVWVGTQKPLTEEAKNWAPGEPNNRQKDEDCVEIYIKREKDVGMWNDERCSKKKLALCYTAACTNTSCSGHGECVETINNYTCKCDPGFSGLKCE
As to the kind of experiment: Sialyl Lewis x Tyrosine Sulfate Assay (sLex TSA), E-selectin. Particulars: for inhibition at 100 µM / E-Selectin [% Inhib.]: compound at 100 μM; for inhibition at 100 µM: read-out: E-Selectin [% Inhib.]. As for the experimental part:
(§1) Compounds of the present invention are assayed on a molecular level for their ability to inhibit the binding of P-, L-, or E-selectin chimeric molecules to sLe^x and tyrosinesulfate residues linked to a polymeric matrix as a PSGL-1 substitute.
(§2) Microtiter plates are coated overnight in carbonate buffer pH9.6 with goat anti human Fc mAB (10 μg/ml). After washing in assay buffer (25 mM 4-(2-hydroxyethyl)-1-piperazineethanesulfonic acid (HEPES), 150 mM NaCl, 1 mM CaCl2 pH7.4) and blocking (3% bovine serum albumin (BSA) in assay buffer) plates are incubated for 2 h at 37° C. with human P-Selectin-IgG-chimera (0.61 nM respectively 150 ng/mL) or human L-Selectin-IgG-chimera (0.61 nM respectively 89 ng/mL) or human E-Selectin-IgG-chimera (0.61 nM respectively 131 ng/mL). 5 μl of sLe^x-tyrosine sulfate polyacrylamide (1 mg/ml) carrying 15% sLe^x, 10% Tyrosine-sulfate and 5% biotin is complexed with 20 μl Streptavidin-Peroxidase solution (1 mg/ml) and 25 μl assay buffer without CaCl2. For use in the assay, the ligand complex is diluted 1:10000 in assay buffer and further diluted 1:1 with varying amounts of compounds in assay buffer incl. 2% DMSO. This mixture is added to the wells precoated with E- or P-selectin. After incubation for 2 h at 37° C., wells are washed for six times with in assay buffer incl. 0.005% Polyoxyethylenesorbitan monolaurate (TWEEN 20), developed for 10-15 min with 20 μl 3,3′,5,5′-tetramethylbenzidine (TMB)/H2O2 substrate solution and stopped with 20 μl […]. Bound sLe^x-Tyrosine sulfate ligand complex is determined by measuring optical density at 450 nm vs. 620 nm in a Fusion alpha-FP reader (sold from Packard Bioscience, Dreieich, Germany).

The target in assay [2] is T2, human L-Selectin-IgG-chimera (Homo sapiens, UniProt P14151).
T2 construct: fused on or other part: human IgG Fc part, a tag and dimerising handle that is captured by the goat anti-human Fc antibody on the plate
T2 sequence (P14151 39-318 limits assumed): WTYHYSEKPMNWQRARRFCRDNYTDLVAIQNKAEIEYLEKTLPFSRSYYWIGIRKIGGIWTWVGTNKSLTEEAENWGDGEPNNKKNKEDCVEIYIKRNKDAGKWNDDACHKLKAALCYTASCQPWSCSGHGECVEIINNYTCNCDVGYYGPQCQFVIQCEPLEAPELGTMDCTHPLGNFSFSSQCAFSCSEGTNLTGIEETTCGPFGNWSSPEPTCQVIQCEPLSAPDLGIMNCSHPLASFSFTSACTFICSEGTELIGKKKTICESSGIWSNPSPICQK
Nature of the assay: Sialyl Lewis x Tyrosine Sulfate Assay (sLex TSA), L-selectin. The following applies: for inhibition at 100 µM / L-Selectin [% Inhib.]: compound at 100 μM; for inhibition at 100 µM: read-out: L-Selectin [% Inhib.]. On the procedure:
as §1, §2

Assay [3] has as its target T3, human P-Selectin-IgG-chimera (Homo sapiens, UniProt P16109).
T3 sequence (P16109 42-771 limits assumed): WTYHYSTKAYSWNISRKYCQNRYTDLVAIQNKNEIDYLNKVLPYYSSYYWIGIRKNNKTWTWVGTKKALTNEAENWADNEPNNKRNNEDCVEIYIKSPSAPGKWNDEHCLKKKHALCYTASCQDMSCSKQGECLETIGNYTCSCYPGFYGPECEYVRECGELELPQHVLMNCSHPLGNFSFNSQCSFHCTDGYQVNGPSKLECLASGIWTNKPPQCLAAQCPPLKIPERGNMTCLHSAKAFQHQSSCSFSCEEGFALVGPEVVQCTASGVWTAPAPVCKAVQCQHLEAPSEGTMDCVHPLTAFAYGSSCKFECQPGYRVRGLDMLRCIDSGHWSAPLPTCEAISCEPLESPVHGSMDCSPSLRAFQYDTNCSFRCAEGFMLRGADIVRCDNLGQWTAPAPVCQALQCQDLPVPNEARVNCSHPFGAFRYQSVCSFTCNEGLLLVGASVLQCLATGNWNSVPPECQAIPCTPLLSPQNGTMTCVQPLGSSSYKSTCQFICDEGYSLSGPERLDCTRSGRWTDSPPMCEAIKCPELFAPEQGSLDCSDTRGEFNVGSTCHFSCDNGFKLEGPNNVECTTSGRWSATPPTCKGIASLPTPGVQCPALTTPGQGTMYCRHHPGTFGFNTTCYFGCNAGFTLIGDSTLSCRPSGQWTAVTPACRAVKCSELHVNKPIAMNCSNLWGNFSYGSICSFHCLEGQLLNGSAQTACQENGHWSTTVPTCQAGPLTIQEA
As to the kind of experiment: Sialyl Lewis x Tyrosine Sulfate Assay (sLex TSA), P-selectin. The following applies: for inhibition at 100 µM / P-Selectin [% Inhib.]: compound at 100 μM; for inhibition at 100 µM: read-out: P-Selectin [% Inhib.]. As for the experimental part: as §1, §2

This is an account of results in US8367677B2, “Non-glycosylated/non-glycosidic/non-peptidic small molecule PSGL-1 mimetics for the treatment of inflammatory disorders” (Revotar Biopharmaceuticals AG, priority 2004, dated 2013).

Molecules are shown by their SMILES.

In the case of `COC(=O)Cc1cccc(-c2ccccc2NC(=O)CCc2cc(O)c(O)c(O)c2)c1` [Compound 73, {2′-[3-(3,4,5-Trihydroxy-phenyl)-propionylamino]-biphenyl-3-yl}-acetic acid methyl ester], the inhibition at 100 µM in assay [1] worked out at 54%; in assay [2], 88%; in assay [3], 84%.
The term IC50 denotes the midpoint of a concentration-inhibition curve. A high value points to weaker potency. Consider `O=C(O)Cc1cccc(-c2ccccc2NC(=O)Cc2cc(O)c(O)c(O)c2)c1` [Compound 94], for which the IC50 in assay [1] amounted to 4.9 µM; in assay [2], 8.7 µM; in assay [3] it was 4.2 µM. Besides, the inhibition at 100 µM in assay [1] amounted to 79%; in assay [2], 76%; in assay [3] it was 78%.
As to `O=C(O)Cc1cccc(-c2ccccc2NC(=O)CCc2cc(O)c(O)c(O)c2)c1` [Compound 95], the “E-Selectin [% Inhib.]” value in assay [1] is on record as 89%. In addition, in assay [2], the “L-Selectin [% Inhib.]” value is 81%. Also, the “P-Selectin [% Inhib.]” value in assay [3] was determined as 90%.
`O=C(Cc1cc(O)c(O)c(O)c1)Nc1cccc(C(=O)O)c1` [Compound 96]: the IC50 came to 0.8 µM in assay [1], 1.4 µM in assay [2] and 1.1 µM in assay [3]. The values for the inhibition at 100 µM in assay [1], in assay [2] and in assay [3] were 63%, 73% and 86%, respectively.
Regarding `O=C(O)Cc1cccc(NC(=O)Cc2cc(O)c(O)c(O)c2)c1` [Compound 98], the figures for the IC50 in assay [1] and in assay [3] were 1 µM and 2.1 µM, respectively. The inhibition at 100 µM in assay [1] is 58%; in assay [2] it was 52%; in assay [3], 57%.
For `O=C(Cc1ccc(O)c(O)c1O)NCC1CCC(C(=O)O)CC1` (stereo not shown) [Compound 100], the “E-Selectin [% Inhib.]” value in assay [1] worked out at 21%. The “L-Selectin [% Inhib.]” value in assay [2] is recorded as 27%. For the same compound, in assay [3], the “P-Selectin [% Inhib.]” value came to 40%.
The like results for `O=C(O)Cc1ccc(-c2ccccc2NC(=O)Cc2cc(O)c(O)c(O)c2)s1` [Compound 103] were, in that order, 68%, 81% and 87%.
For the compound `O=C(Cc1cc(O)c(O)c(O)c1)NCC1CCC(C(=O)O)CC1` (stereo not shown) [Compound 104], the IC50 stood at 3 µM in assay [1], 3.3 µM in assay [2] and 2.8 µM in assay [3]. Besides, the inhibition at 100 µM in assay [1] stood at 67%; in assay [2], 62%; in assay [3] it was 67%.
On to `O=C(CCc1cc(O)c(O)c(O)c1)NCC1CCC(C(=O)O)CC1` (stereo not shown) [Compound 105], for which the IC50 in assay [1] turned out to be 3.1 µM; in assay [2], 5.7 µM; in assay [3], 3.4 µM. Moreover, the inhibition at 100 µM in assay [1] came out at 90%; in assay [2] it was 84%; in assay [3] it was 86%.
For `O=C(O)Cc1ccc(-c2ccccc2NC(=O)CCc2ccc(O)c(O)c2O)s1` [Compound 106], the “E-Selectin [% Inhib.]” value in assay [1] is 52%. Moreover, the “L-Selectin [% Inhib.]” value in assay [2] was 85%. Further, the “P-Selectin [% Inhib.]” value in assay [3] was determined as 94%.
The like results for `Cc1ccc(C(=O)O)cc1NC(=O)Cc1cc(O)c(O)c(O)c1` [Compound 107] were, in that order, 53%, 75% and 87%.
`Cc1ccc(C(=O)O)cc1NC(=O)CCc1cc(O)c(O)c(O)c1` [Compound 108]: the results for the half-maximal inhibitory concentration (IC50) in assay [1], in assay [2] and in assay [3] were 1.3 µM, 1.8 µM and 1.7 µM, respectively. For the same compound, the inhibition at 100 µM in assay [1] was 85%; in assay [2] it was 84%; in assay [3], 86%.
`O=C(O)Cc1cccc(NC(=O)CCc2cc(O)c(O)c(O)c2)c1` [Compound 109]: the midpoint of inhibition in assay [1], the IC50, lay at 2.3 µM. Also, the inhibition at 100 µM came to 82% in assay [1], 72% in assay [2] and 73% in assay [3].
Take `O=C(CCc1cc(O)c(O)c(O)c1)Nc1cccc(C(=O)O)c1` [Compound 110]: the “E-Selectin [% Inhib.]” value in assay [1] came to 96%. Besides, in assay [2], the “L-Selectin [% Inhib.]” value was 92%. For the same compound, the “P-Selectin [% Inhib.]” value in assay [3] is given as 96%.
With `O=C(Cc1ccc(O)c(O)c1O)Nc1cccc(C(=O)O)c1` [Compound 111], the IC50 turned out to be 0.6 µM in assay [1], 7 µM in assay [2] and 2.1 µM in assay [3]. Moreover, the inhibition at 100 µM is 46% in assay [1], 97% in assay [2] and 99% in assay [3].
As to `O=C(O)Cc1cccc(NC(=O)Cc2ccc(O)c(O)c2O)c1` [Compound 112], the inhibition at 100 µM in assay [1] turned out to be 38%; in assay [2], 83%; in assay [3], 97%. The IC50 was 16 µM in assay [2] and 7.4 µM in assay [3].
Consider `Cc1c(NC(=O)Cc2ccc(O)c(O)c2O)cccc1C(=O)O` [Compound 113], for which the “E-Selectin [% Inhib.]” value in assay [1] is recorded as 42%. In addition, the “L-Selectin [% Inhib.]” value in assay [2] is 48%. Also, the “P-Selectin [% Inhib.]” value in assay [3] came to 73%.
For `O=C(CCc1ccc(O)c(O)c1O)Nc1cccc(C(=O)O)c1` [Compound 114], in that order: 38%, 95% and 99%.
As to `Cc1c(NC(=O)CCc2ccc(O)c(O)c2O)cccc1C(=O)O` [Compound 115], the “L-Selectin [% Inhib.]” value in assay [2] came to 88%. Besides, the “P-Selectin [% Inhib.]” value in assay [3] came to 89%.
As for `Cc1ccc(C(=O)O)cc1NC(=O)CCc1ccc(O)c(O)c1O` [Compound 116], the IC50 in assay [1] was 7.3 µM; in assay [2] it was 15 µM; in assay [3] it was 13 µM. Moreover, the values for the inhibition at 100 µM in assay [1], in assay [2] and in assay [3] were 92%, 87% and 88%, respectively.
For `Cc1c(NC(=O)CCc2cc(O)c(O)c(O)c2)cccc1C(=O)O` [Compound 117], the figures for the IC50 in assay [1], in assay [2] and in assay [3] were 8.4 µM, 109 µM and 21.7 µM, respectively. Also, the values for the inhibition at 100 µM in assay [1], in assay [2] and in assay [3] were 94%, 89% and 86%, respectively.
Take `O=C(Cc1ccc(O)c(O)c1O)NCc1ccc(C(=O)O)cc1` [Compound 119]: the “E-Selectin [% Inhib.]” value in assay [1] came out at 14%. The “L-Selectin [% Inhib.]” value in assay [2] came out at 55%. In assay [3], the “P-Selectin [% Inhib.]” value turned out to be 82%.
